Source: patent publication US5053418A, “Antiprotozoal agents” (Burroughs Wellcome Co., priority 1983, dated 1991)

Columns and labels:
P.falciparum = experiment: In vitro activity against P.falciparum: inhibition of 3H-adenosine/3H-hypoxanthine incorporation (modified Desjardins); assay type: cell-based; conditions: for ED50 for Clopidol (4-pyridinol) / ED50 for naphthoquinone: 2580 min; for inhibition at 6.25 pg/mL: 0.00000625 mg/L; for inhibition at 12.5 pg/mL: 0.0000125 mg/L; for inhibition at 0.625 µg/mL: 0.625 mg/L; for inhibition at 1.25 µg/mL: 1.25 mg/L
Procedure: Each of the two compounds to be tested were dissolved in ethanol at a concentration of 10 mg/L and serially diluted with RPMI 1640 medium and 10% (v/v) human plasma in microtitration plates. P.falciparum-parasitised and fresh blood cells were added together with ^3 H-adenosine or ^3 H-hypoxanthinein RPMI 1640 medium and 10% human plasma. The cultures were then incubated at 37° C. for 43 hours, harvested and the particulate contents collected on glass fibre filter papers which were washed copiously with water using a Cooke Microtiter System (Dynatech Labs. Europe); the filter papers were dried and the radioactivity measured using a scintillation counter. Infected, untreated and uninfected cultures were included as controls. Percent inhibition was correlated with dose to provide an IC50 for each drug alone.
For subsequent combination experiments the individual drug solutions and mixtures thereof were serially diluted.
By the method of Example 1 the effect of a number of naphthoquinone/clopidol (4-pyridinol) combinations on P.falciparum in vitro were determined.

P.yoelii = experiment: In vivo effect on P.yoelii in mice (inhibition of parasitaemia)
Procedure: The naphthoquinone and the pyridinol were each suspended in 0.25% (w/v) celacol in water by milling for 16-24 hours at 26° C. The suspensions were subsequently serially diluted with 0.25% (w/v) celacol in water. At time 0, 0.1 ml of a suspension of 10^7 P.yoelii-parasitised red blood cells/ml of phosphate buffered saline were injected intravenously into 15-20 g mice through a tail vein. Groups of 5 mice per treatment were dosed orally at times 6, 22, 30, 46, 54, 70 and 78 hours with 0.2 ml of the drug suspension. Tail-blood smears were taken at 96 hours, stained with Giemsa and the percentage of red blood cells infected determined and compared to untreated, infected controls. Percent inhibition was correlated with dose to provide ED50 values for each drug alone. In subsequent experiments dilutions of the two drugs, alone and in combination were used, and the percentage inhibition of parasitaemia and ED50 values (of each drug at fixed concentrations of the other) were determined. The results are shown respectively in Tables V and VI. A number of combinations of clopidol (4-pyridinol) and naphthoquinones were assayed and compared with each drug alone for their antimalarial effect against P.yoelii in vivo by the method of Example 4.

in vivo = conditions: rat, acute oral, rats
Procedure: The acute oral LD50 's of compounds of formula (I) in rats were determined by standard techniques.

[1] = Plasmodium falciparum, naphthoquinone alone
[2] = Plasmodium falciparum, 4-pyridinol analogue alone

## CC(C)(C)C1CCC(C2=C(Cl)C(=O)c3ccccc3C2=O)CC1 (stereo not drawn) [2-(4-t-butylcyclohexyl)-3-chloro-1,4-naphthoquinone] [listing 1 of 2 here]
P.falciparum; Plasmodium falciparum, naphthoquinone alone, 0.0625 mg/L
  inhibition at 0.0625 µg/mL: 18%
P.falciparum; Plasmodium falciparum, naphthoquinone alone, 0.125 mg/L
  inhibition at 0.125 µg/mL: 14%
P.falciparum; Plasmodium falciparum, naphthoquinone alone, 0.25 mg/L
  inhibition at 0.25 µg/mL: 17%
P.falciparum; Plasmodium falciparum, naphthoquinone alone, 0.50 mg/L
  inhibition at 0.5 µg/mL: 31%
P.falciparum; Plasmodium falciparum, naphthoquinone alone, 1.0 mg/L
  inhibition at 1 µg/mL: 55%
P.falciparum; Plasmodium falciparum, naphthoquinone alone, 2.0 mg/L
  inhibition at 2 µg/mL: 75%

## Cc1nc(C)c(Cl)c(O)c1Cl [Clopidol, 3,5-dichloro-2,6-dimethyl-4-pyridinol, reference compound]
P.falciparum; Plasmodium falciparum, 4-pyridinol alone, 0.80 mg/L
  inhibition at 0.8 µg/mL: 44%
P.falciparum; Plasmodium falciparum, 4-pyridinol alone, 1.6 mg/L
  inhibition at 1.6 µg/mL: 55%
P.falciparum; Plasmodium falciparum, 4-pyridinol alone, 3.2 mg/L
  inhibition at 3.2 µg/mL: 74%
P.falciparum; clopidol (4-pyridinol) alone, 0.10 mg/L, listed as 4-pyridinol
  % inhibition: 24%
P.falciparum; clopidol (4-pyridinol) alone, 0.20 mg/L, listed as 4-pyridinol
  % inhibition: 18%
P.falciparum; clopidol (4-pyridinol) alone, 0.40 mg/L, listed as 4-pyridinol
  % inhibition: 22%
P.falciparum; fixed naphthoquinone 0.0 mg/L (alone)
  ED50 for Clopidol (4-pyridinol): 1.18 (1.44 to 0.980) mg/L
P.falciparum; fixed naphthoquinone 0.00781 mg/L
  ED50 for Clopidol (4-pyridinol): 1.63 mg/L
P.falciparum; fixed naphthoquinone 0.0156 mg/L
  ED50 for Clopidol (4-pyridinol): 0.128 mg/L
P.falciparum; fixed naphthoquinone 0.0313 mg/L
  ED50 for Clopidol (4-pyridinol): 2.57 mg/L
P.falciparum; fixed naphthoquinone 0.0625 mg/L
  ED50 for Clopidol (4-pyridinol): 1.03 (14.2 to 0.405) mg/L
P.falciparum; fixed naphthoquinone 0.125 mg/L
  ED50 for Clopidol (4-pyridinol): 0.578 mg/L
P.falciparum; fixed naphthoquinone 0.250 mg/L
  ED50 for Clopidol (4-pyridinol): 0.074 mg/L
P.falciparum; fixed naphthoquinone 0.500 mg/L
  ED50 for Clopidol (4-pyridinol): 0.052 mg/L
P.falciparum; fixed naphthoquinone 1.00 mg/L
  ED50 for Clopidol (4-pyridinol): 0.0092 mg/L
P.falciparum; fixed naphthoquinone 2.00 mg/L
  ED50 for Clopidol (4-pyridinol): 0.00097 mg/L
P.falciparum; fixed naphthoquinone 4.00 mg/L
  ED50 for Clopidol (4-pyridinol): 0.00012 mg/L
P.yoelii; Plasmodium yoelii, po, 96 h, clopidol alone, 1.9 mg/Kg/dose, 7 doses
  inhibition in vivo at 1.9 mg/kg: 6%
P.yoelii; Plasmodium yoelii, po, 96 h, clopidol alone, 2.5 mg/Kg × 7
  inhibition in vivo at 2.5 mg/kg: 0%
P.yoelii; Plasmodium yoelii, po, 96 h, clopidol alone, 3.7 mg/Kg/dose, 7 doses
  inhibition in vivo at 3.7 mg/kg: 17%
P.yoelii; Plasmodium yoelii, po, 96 h, clopidol alone, 7.5 mg/Kg/dose, 7 doses
  inhibition in vivo at 7.5 mg/kg: 13%
P.yoelii; Plasmodium yoelii, po, 96 h, clopidol alone, 13 mg/Kg × 7
  inhibition in vivo at 13 mg/kg: 5%
P.yoelii; Plasmodium yoelii, po, 96 h, clopidol alone, 15 mg/Kg/dose, 7 doses
  inhibition in vivo at 15 mg/kg: 34%
P.yoelii; Plasmodium yoelii, po, 96 h, clopidol alone, 30 mg/Kg/dose, 7 doses
  inhibition in vivo at 30 mg/kg: 61%
P.yoelii; fixed naphthoquinone 0.000 (alone)
  ED50 for Clopidol (4-pyridinol): 22.5 (27.6 to 19.4) mg/Kg/dose
P.yoelii; fixed naphthoquinone 0.019
  ED50 for Clopidol (4-pyridinol): 13.8 (21.5 to 10.7) mg/Kg/dose
P.yoelii; fixed naphthoquinone 0.0375
  ED50 for Clopidol (4-pyridinol): 5.14 (6.22 to 4.23) mg/Kg/dose
P.yoelii; fixed naphthoquinone 0.075
  ED50 for Clopidol (4-pyridinol): 1.87 (2.45 to 1.30) mg/Kg/dose
P.yoelii; fixed naphthoquinone 0.15
  ED50 for Clopidol (4-pyridinol): 0.522 (0.946 to 0.0356) mg/Kg/dose

## CCC(C)(C)C1CCC(C2=C(O)C(=O)c3ccccc3C2=O)CC1 (stereo not drawn)
P.falciparum; [1]
  inhibition at 6.25 pg/mL: 31%
  inhibition at 12.5 pg/mL: 51%

## Cc1nc(C)c(Br)c(O)c1Br [X = Br, R^3 = Me, 3,5-dibromo-2,6-dimethyl-4-pyridinol]
P.falciparum; Plasmodium falciparum, 4-pyridinol analogue alone, 0.125 mg/L
  inhibition at 0.125 µg/mL: 2%
P.falciparum; Plasmodium falciparum, 4-pyridinol analogue alone, 0.25 mg/L
  inhibition at 0.25 µg/mL: 14%

## O=C1C(O)=C(C2CCCC2)C(=O)c2ccccc21
P.falciparum; [1]
  inhibition at 0.625 µg/mL: 0%
  inhibition at 1.25 µg/mL: 2%

## CC(=O)OC1=C(C2CCC(C)(C)CC2)C(=O)c2ccccc2C1=O
P.falciparum; Plasmodium falciparum, naphthoquinone alone, 0.000750 mg/L
  inhibition at 0.00075 µg/mL: 0%
P.falciparum; Plasmodium falciparum, naphthoquinone alone, 0.00150 mg/L
  inhibition at 0.0015 µg/mL: 0%

## CC(C)(C)C1CCC(C2=C(O)C(=O)c3ccccc3C2=O)CC1 (stereo not drawn) [drawing 10]
P.falciparum; [1]
  inhibition at 6.25 pg/mL: 17%
  inhibition at 12.5 pg/mL: 13%

## Cc1ccc(C2CCC(C3=C(O)C(=O)c4ccccc4C3=O)CC2)cc1C (stereo not drawn)
P.falciparum; Plasmodium falciparum, naphthoquinone alone, 0.000125 mg/L
  inhibition at 0.000125 µg/mL: 15%
P.falciparum; Plasmodium falciparum, naphthoquinone alone, 0.00025 mg/L
  inhibition at 0.00025 µg/mL: 30%

## CC(C)(C)C1CCC(C2=C(Cl)C(=O)c3ccccc3C2=O)CC1 (stereo not drawn) [2-(4-t-butylcyclohexyl)-3-chloro-1,4-naphthoquinone] [listing 2 of 2 here]
P.falciparum; fixed clopidol 0.000 mg/L (alone)
  ED50 for naphthoquinone: 0.851 µg/mL
P.falciparum; fixed clopidol 0.00625 mg/L
  ED50 for naphthoquinone: 0.699 µg/mL
P.falciparum; fixed clopidol 0.0125 mg/L
  ED50 for naphthoquinone: 0.401 µg/mL
P.falciparum; fixed clopidol 0.0250 mg/L
  ED50 for naphthoquinone: 0.478 µg/mL
P.falciparum; fixed clopidol 0.0500 mg/L
  ED50 for naphthoquinone: 0.447 µg/mL
P.falciparum; fixed clopidol 0.100 mg/L
  ED50 for naphthoquinone: 0.287 µg/mL
P.falciparum; fixed clopidol 0.200 mg/L
  ED50 for naphthoquinone: 0.198 µg/mL
P.falciparum; fixed clopidol 0.400 mg/L
  ED50 for naphthoquinone: 0.155 µg/mL
P.falciparum; fixed clopidol 0.800 mg/L
  ED50 for naphthoquinone: 0.0801 µg/mL
P.falciparum; fixed clopidol 1.60 mg/L
  ED50 for naphthoquinone: 0.0303 µg/mL
P.falciparum; fixed clopidol 3.20 mg/L
  ED50 for naphthoquinone: 0.0075 µg/mL

## CCCCCCCCCCCCCC1=C(O)C(=O)c2ccccc2C1=O [(CH2)12 Me]
P.falciparum; Plasmodium falciparum, naphthoquinone alone, 0.0078 mg/L
  inhibition at 0.0078 µg/mL: 4%
P.falciparum; Plasmodium falciparum, naphthoquinone alone, 0.0156 mg/L
  inhibition at 0.0156 µg/mL: 10%

## CCCc1nc(CCC)c(Cl)c(O)c1Cl [X = Cl, R^3 = Pr, 3,5-dichloro-2,6-dipropyl-4-pyridinol]
P.falciparum; [2]
  inhibition at 0.625 µg/mL: 12%
  inhibition at 1.25 µg/mL: 24%

## CC(C)(C)C1CCC(C2=C(Cl)C(=O)c3ccccc3C2=O)CC1 (stereo not drawn) [drawing 6, 2-(4-t-butylcyclohexyl)-3-chloro-1,4-naphthoquinone]
P.falciparum; naphthoquinone alone, 0.125 mg/L
  % inhibition: 14%
P.falciparum; naphthoquinone alone, 0.25 mg/L
  % inhibition: 17%

## CC(C)(C)C1CCC(C2=C(O)C(=O)c3ccccc3C2=O)CC1 (stereo not drawn) [2-(4-t-butylcyclohexyl)-3-hydroxy-1,4-naphthoquinone]
P.falciparum; Plasmodium falciparum, naphthoquinone alone, 0.0000156 mg/L
  inhibition at 15.6 pg/mL: 0.5%
P.falciparum; Plasmodium falciparum, naphthoquinone alone, 0.0000325 mg/L
  inhibition at 32.5 pg/mL: 2%
P.falciparum; naphthoquinone alone, 0.00003125 mg/L
  % inhibition: 5%
In vivo
  LD50: > 1000 mg/kg

## CC(C)(C)C1CCCC(C2=C(O)C(=O)c3ccccc3C2=O)C1 (stereo not drawn)
P.falciparum; Plasmodium falciparum, naphthoquinone alone, 0.0500 mg/L
  inhibition at 0.05 µg/mL: 8%
P.falciparum; Plasmodium falciparum, naphthoquinone alone, 0.100 mg/L
  inhibition at 0.1 µg/mL: 24%

## CCCc1nc(CCC)c(Br)c(O)c1Br [X = Br, R^3 = Pr, 3,5-dibromo-2,6-dipropyl-4-pyridinol]
P.falciparum; Plasmodium falciparum, 4-pyridinol analogue alone, 3.125 mg/L
  inhibition at 3.125 µg/mL: 9%
P.falciparum; Plasmodium falciparum, 4-pyridinol analogue alone, 6.25 mg/L
  inhibition at 6.25 µg/mL: 15%
